In ChEMBL document CHEMBL1129118, “New heteroaryl-spaced phosphono -amino acids are competitive NMDA antagonists with analgesic activity” (Bioorg Med Chem Lett, 1996):

These compounds were tested on Mus musculus (assay: Tested for its analgesic activity in the mouse formalin test (20 umol/kg 1 % formaldehyde injected into a hind paw, licking of the paw scored 15-30 min after formalin injection)).
Format: functional

| Structure (SMILES) | ED50 |
| --- | --- |
| CCOc1ccc2cc(CP(=O)(O)O)c(C[C@@H](N)C(=O)O)nc2c1 | 150 µmol/kg |

The compounds below were run on Mus musculus (assay: Analgesic activity was evaluated in the mouse formalin test (20 uM/Kg 1% formaldehyde injected into a hind paw, licking of the paw scored 15-30 min after formalin injection)).
Format: functional

| Structure (SMILES) | ED50 |
| --- | --- |
| N[C@H](Cc1nc2ccc(Cl)cc2cc1CP(=O)(O)O)C(=O)O | 200 µmol/kg |

The compounds below were run on Mus musculus (assay: Analgesic activity was evaluated in the mouse formalin test (20 umol/kg 1 % formaldehyde injected into a hind paw, licking of the paw scored 15-30 min after formalin injection)).
Format: functional

| Structure (SMILES) | ED50 |
| --- | --- |
| N[C@H](Cc1nc2cc(Cl)ccc2cc1CP(=O)(O)O)C(=O)O | 60 µmol/kg |
| Cc1cc2cc(CP(=O)(O)O)c(C[C@@H](N)C(=O)O)nc2cc1C | 42 µmol/kg |

What follows are compounds tested against Glutamate NMDA receptor (assay: Binding affinity to the glutamate site of the NMDA receptor was measured by competitive inhibition of binding of [3H]-CGP- 39653 to rat or porcine cerebral cortex membranes).
Format: cell membranes, Membrane

| Structure (SMILES) | Ki |
| --- | --- |
| N[C@H](Cc1nc2ccccc2cc1CP(=O)(O)O)C(=O)O | 123 nM |
| N[C@H](Cc1nc2cccc(Cl)c2cc1CP(=O)(O)O)C(=O)O | 120 nM |
| Cc1ccc2cc(CP(=O)(O)O)c(C[C@@H](N)C(=O)O)nc2c1 | 54 nM |
| N[C@H](Cc1nc2ccc(F)cc2cc1CP(=O)(O)O)C(=O)O | 140 nM |
| N[C@H](Cc1nc2ccncc2cc1CP(=O)(O)O)C(=O)O | 722 nM |
| NC(Cc1cc2ccccc2cc1CP(=O)(O)O)C(=O)O (stereo unspecified) | 140 nM |
| N[C@H](Cc1nc2ccc(Cl)cc2cc1CP(=O)(O)O)C(=O)O | 57 nM |
| CCc1cc2cc(CP(=O)(O)O)c(C[C@@H](N)C(=O)O)nc2cc1CC | 4 nM |
| NC(Cc1oc2ccccc2c1CP(=O)(O)O)C(=O)O (stereo unspecified) | 2700 nM |
| NC(Cc1nc2cc(Cl)c(Cl)cc2nc1CP(=O)(O)O)C(=O)O (stereo unspecified) | 3.4 nM |
| N[C@H](Cc1nc2cc(Cl)c(Cl)cc2cc1CP(=O)(O)O)C(=O)O | 5 nM |
| COc1cc2cc(CP(=O)(O)O)c(C[C@@H](N)C(=O)O)nc2cc1OC | 950 nM |
| CCC/C(=C\C(N)C(=O)O)CP(=O)(O)O (stereo unspecified) | 13 nM |
| N[C@H](Cc1nc2cc(Cl)c(Cl)cc2n1CP(=O)(O)O)C(=O)O | 18.2 nM |
| CCOc1ccc2cc(CP(=O)(O)O)c(C[C@@H](N)C(=O)O)nc2c1 | 29 nM |
| Cc1cc2cc(CP(=O)(O)O)c(C[C@H](N)C(=O)O)nc2cc1C | 430 nM |
| Cc1cc2cc(CP(=O)(O)O)c(C[C@@H](N)C(=O)O)nc2cc1Cl | 4 nM |
| N[C@H](Cc1nc2cc(Cl)ccc2cc1CP(=O)(O)O)C(=O)O | 20 nM |
| Cc1cc2cc(CP(=O)(O)O)c(C[C@@H](N)C(=O)O)nc2cc1C | 5 nM |
| N[C@H](Cc1nc2c(Cl)cc(Cl)cc2cc1CP(=O)(O)O)C(=O)O | 29 nM |
| N[C@H](Cc1nc2ncccc2cc1CP(=O)(O)O)C(=O)O | 74 nM |
| O=C(O)[C@@H]1C[C@H](CP(=O)(O)O)CCN1 (relative stereo) [SELFOTEL] | 29 nM |
